# Experimental data: patent US8008292B2, “Condensed benzamide compounds and inhibitors of vanilloid receptor subtype 1 (VR1) activity” (Japan Tobacco Inc., priority 2004, dated 2011)
# Biological target: T1, human VR1 (Homo sapiens, UniProt Q8NER1)
# T1 construct: expressed in transfected cells
# Assay: Inhibition of Ca2+ entry in cells caused by proton, in rat glioma (C6BU1) cells stably expressing human VR1 (Fura 2 fluorescence)
# Type: cell-based
# Details: inhibition of proton-induced Ca2+ entry
# Procedure, shortened: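 Fura 2-loaded C6BU1 cells in 20 mM MES buffer pH 6.8 with added Ca2+ were preincubated 10 min with compound (final 1 μM to 0.1 nM, 1% DMSO). Proton stimulation brought pH to 5.5. Fluorescence rise was measured, and IC50 was derived from % inhibition versus DMSO control.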
# T1 sequence (Q8NER1 whole entry): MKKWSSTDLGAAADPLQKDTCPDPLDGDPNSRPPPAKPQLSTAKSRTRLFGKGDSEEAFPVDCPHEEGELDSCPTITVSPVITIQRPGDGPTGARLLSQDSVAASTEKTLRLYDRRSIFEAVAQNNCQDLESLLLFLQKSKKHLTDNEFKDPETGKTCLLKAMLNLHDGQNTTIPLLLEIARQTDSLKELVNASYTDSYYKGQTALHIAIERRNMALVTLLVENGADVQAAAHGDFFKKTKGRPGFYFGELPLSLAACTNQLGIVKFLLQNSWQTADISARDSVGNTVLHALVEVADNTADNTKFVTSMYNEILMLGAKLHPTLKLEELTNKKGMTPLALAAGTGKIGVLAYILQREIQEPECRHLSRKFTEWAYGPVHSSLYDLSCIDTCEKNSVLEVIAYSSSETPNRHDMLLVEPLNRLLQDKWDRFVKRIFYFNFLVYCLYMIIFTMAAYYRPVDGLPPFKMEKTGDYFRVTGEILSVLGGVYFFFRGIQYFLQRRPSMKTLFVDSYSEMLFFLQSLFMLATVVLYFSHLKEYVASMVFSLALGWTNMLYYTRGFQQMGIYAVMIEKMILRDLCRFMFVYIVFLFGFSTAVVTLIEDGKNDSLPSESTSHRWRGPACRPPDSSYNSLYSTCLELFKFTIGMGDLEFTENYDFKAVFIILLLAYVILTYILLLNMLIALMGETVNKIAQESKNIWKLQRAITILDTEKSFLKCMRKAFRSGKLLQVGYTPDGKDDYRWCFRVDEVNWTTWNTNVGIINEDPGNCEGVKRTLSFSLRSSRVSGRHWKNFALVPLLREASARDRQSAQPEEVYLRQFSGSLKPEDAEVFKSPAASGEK
row,IC50 [µM],SMILES
1,< 0.1,Cc1cnc(N2c3cccc(C(=O)Nc4ccc(N5CCOCC5)c(F)c4)c3OC[C@@H]2CO)s1 [Example 6-9]
2,< 0.1,Cc1cnc(N2c3cccc(C(=O)Nc4ccc(C(F)(F)F)nc4)c3OC[C@@H]2CO)s1 [Example 6-10]
3,< 0.1,"Cc1cnc(N2c3cccc(C(=O)Nc4ccc(OC(F)(F)F)cc4)c3OC[C@@H]2CO)o1 [Example 6-11, (S)-3-hydroxymethyl-4-(5-methyloxazol-2-yl)-N-(4-trifluoromethoxyphenyl)-3,4-dihydro-2H-benzo[1,4]oxazine-8-carboxamide]"
4,< 0.1,"Cc1cnc(N2c3cccc(C(=O)Nc4ccc(C(F)(F)F)cc4)c3OC[C@@H]2CO)o1 [Example 6-12, (S)-3-hydroxymethyl-4-(5-methyloxazol-2-yl)-N-(4-trifluoromethylphenyl)-3,4-dihydro-2H-benzo[1,4]oxazine-8-carboxamide]"
5,< 0.1,"Cc1nc(N2c3cccc(C(=O)Nc4ccc(OC(F)(F)F)cc4)c3OC[C@@H]2CO)sc1C [Example 6-13, (S)-4-(4,5-dimethylthiazol-2-yl)-3-hydroxymethyl-N-(4-trifluoromethoxyphenyl)-3,4-dihydro-2H-benzo[1,4]oxazine-8-carboxamide]"
6,< 0.1,"Cc1nc(N2c3cccc(C(=O)Nc4ccc(C(F)(F)F)cc4)c3OC[C@@H]2CO)sc1C [Example 6-14, (S)-4-(4,5-dimethylthiazol-2-yl)-3-hydroxymethyl-N-(4-trifluoromethylphenyl)-3,4-dihydro-2H-benzo[1,4]oxazine-8-carboxamide]"
7,< 0.1,"COc1ccc(N2CCOc3c(C(=O)Nc4ccc(C(C)(C)C)cc4)cccc32)cc1 [Example 7-01, N-(4-tert-butylphenyl)-4-(4-methoxyphenyl)-3,4-dihydro-2H-benzo[1,4]oxazine-8-carboxamide]"
8,< 0.1,"COc1ccc(N2CCOc3c(C(=O)Nc4ccc(OCC(C)C)cc4)cccc32)cc1 [Example 7-02, N-(4-isobutyloxyphenyl)-4-(4-methoxyphenyl)-3,4-dihydro-2H-benzo[1,4]oxazine-8-carboxamide]"
9,< 0.1,"COc1ccc(N2CCOc3c(C(=O)Nc4ccc(Cl)cc4)cccc32)cc1 [Example 7-03, N-(4-chlorophenyl)-4-(4-methoxyphenyl)-3,4-dihydro-2H-benzo[1,4]oxazine-8-carboxamide]"
10,< 0.1,"O=C(Nc1ccc(OC(F)(F)F)cc1)c1cccc2c1OC[C@H](CO)N2c1ccccc1Cl [Example 7-04, (S)-4-(2-chlorophenyl)-3-hydroxymethyl-N-(4-trifluoromethoxyphenyl)-3,4-dihydro-2H-benzo[1,4]oxazine-8-carboxamide]"
11,< 0.1,O=C(Nc1ccc(C(F)(F)F)cc1)c1cccc2c1OC[C@H](CO)N2c1ccccc1Cl [Example 7-05]
12,< 0.1,O=C(Nc1ccc(C(F)(F)F)c(F)c1)c1cccc2c1OC[C@H](CO)N2c1ccccc1Cl [Example 7-06]
13,< 0.1,O=C(Nc1ccc(OC(F)(F)F)cc1)c1cccc2c1OC[C@H](CO)N2c1ccc(Cl)cc1 [Example 7-07]
14,< 0.1,COc1ccc(N2c3cccc(C(=O)Nc4ccc(OC(F)(F)F)cc4)c3OC[C@@H]2CO)cc1 [Example 7-08]
15,< 0.1,COc1ccc(N2c3cccc(C(=O)Nc4ccc(C(F)(F)F)cc4)c3OC[C@@H]2CO)cc1 [Example 7-09]
16,< 0.1,O=C(Nc1ccc(C(F)(F)F)cc1)c1cccc2c1OC[C@H](CO)N2c1ccc(Cl)cc1 [Example 7-10]
17,< 0.1,O=C(Nc1ccc(Cl)cc1)c1cccc2c1OC[C@H](CO)N2c1ccc(Cl)cc1 [Example 7-11]
